# Assay results as given in paper PMC8704707 (Pharmaceuticals, 2021).
# Counter-ions that a name gives are not always drawn. Like-named read-outs stand apart in the source and are kept apart here.
# How the values were obtained:
# [1] = target: AChE from electric eel (EeAChE) (Electrophorus electricus, UniProt O42275); experiment: biochemical; assay type: biochemical
# [2] = target: BuChE from equine serum (EqBuChE) (Equus caballus, UniProt P81908); experiment: biochemical
# [3] = test system: methicillin-resistant Staphylococcus aureus ATCC 43300; experiment: Antibacterial microdilution broth method (EUCAST); assay type: cell-based; conditions: ATCC 43300 / MRSA
# [4] = test system: Staphylococcus aureus ATCC 29213; experiment: Antibacterial microdilution broth method (EUCAST); assay type: cell-based
# [5] = test system: Acinetobacter baumannii ATCC 19606; experiment: Antibacterial microdilution broth method (EUCAST); assay type: cell-based
# [6] = test system: Klebsiella pneumoniae ATCC 10031; conditions: for MIC KP 24 h: 24 h incubation; for MIC KP 48 h: 48 h incubation
# [7] = test system: Enterococcus faecalis ATCC 29212; experiment: Antibacterial microdilution broth method (EUCAST); assay type: cell-based
# [8] = test system: Pseudomonas aeruginosa ATCC 27853; experiment: Antibacterial microdilution broth method (EUCAST); assay type: cell-based
# [9] = test system: Escherichia coli ATCC 25922; experiment: Antibacterial microdilution broth method (EUCAST); assay type: cell-based
# [10] = test system: Staphylococcus epidermidis ATCC 12228; experiment: Antibacterial microdilution broth method (EUCAST); assay type: cell-based
# [11] = test system: Candida tropicalis ATCC 750; experiment: microbe, parasite or virus in culture; assay type: cell-based
# [12] = test system: Trichophyton interdigitale ATCC 9533; experiment: microbe, parasite or virus in culture; assay type: cell-based
# [13] = test system: Candida parapsilosis ATCC 22019; experiment: microbe, parasite or virus in culture; assay type: cell-based; conditions: Lodderomyces parapsilosis
# [14] = test system: Candida albicans ATCC 24443; experiment: microbe, parasite or virus in culture; assay type: cell-based
# Candida krusei ATCC 6258 = experiment: microbe, parasite or virus in culture; assay type: cell-based; conditions: Pichia kudriavzevii
# [15] = mean ± SD, n = three independent experiments, BTCh 40 µM, read-out: IC50 BuChE
# [16] = ATCC29213, 24 h, read-out: MIC SA 24 h
# [17] = ATCC29213, 48 h, read-out: MIC SA 48 h
# [18] = ATCC19606, 24 h, read-out: MIC ACI 24 h
# [19] = ATCC19606, 48 h, read-out: MIC ACI 48 h
# [20] = ATCC29212, 24 h, read-out: MIC EF 24 h
# [21] = ATCC29212, 48 h, read-out: MIC EF 48 h
# [22] = mean ± SD, n = three independent experiments, ATCh 40 µM, read-out: IC50 AChE
# [23] = ATCC27853, 24 h, read-out: MIC PA 24 h
# [24] = ATCC27853, 48 h, read-out: MIC PA 48 h
# [25] = ATCC25922, 24 h, read-out: MIC EC 24 h
# [26] = ATCC25922, 48 h, read-out: MIC EC 48 h
# [27] = ATCC12228, 24 h, read-out: MIC SE 24 h
# [28] = ATCC12228, 48 h, read-out: MIC SE 48 h
# AChE from electric eel (EeAChE), sequence (O42275 24-633): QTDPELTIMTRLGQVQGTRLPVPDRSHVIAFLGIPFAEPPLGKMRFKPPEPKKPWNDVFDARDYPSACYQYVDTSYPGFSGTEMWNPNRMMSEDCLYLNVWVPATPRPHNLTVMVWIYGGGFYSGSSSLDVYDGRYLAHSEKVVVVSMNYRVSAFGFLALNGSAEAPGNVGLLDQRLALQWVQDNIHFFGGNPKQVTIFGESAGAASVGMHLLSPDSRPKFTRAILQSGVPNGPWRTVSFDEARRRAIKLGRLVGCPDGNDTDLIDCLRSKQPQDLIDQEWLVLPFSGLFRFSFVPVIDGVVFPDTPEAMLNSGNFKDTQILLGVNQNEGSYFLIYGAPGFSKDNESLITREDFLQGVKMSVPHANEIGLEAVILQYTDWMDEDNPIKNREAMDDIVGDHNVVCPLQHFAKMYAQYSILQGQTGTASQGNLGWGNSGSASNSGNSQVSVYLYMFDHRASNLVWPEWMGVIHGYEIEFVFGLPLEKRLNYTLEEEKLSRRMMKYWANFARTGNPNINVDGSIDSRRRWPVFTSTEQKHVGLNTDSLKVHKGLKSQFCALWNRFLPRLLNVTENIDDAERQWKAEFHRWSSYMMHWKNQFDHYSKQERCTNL
# BuChE from equine serum (EqBuChE), sequence (P81908 whole entry): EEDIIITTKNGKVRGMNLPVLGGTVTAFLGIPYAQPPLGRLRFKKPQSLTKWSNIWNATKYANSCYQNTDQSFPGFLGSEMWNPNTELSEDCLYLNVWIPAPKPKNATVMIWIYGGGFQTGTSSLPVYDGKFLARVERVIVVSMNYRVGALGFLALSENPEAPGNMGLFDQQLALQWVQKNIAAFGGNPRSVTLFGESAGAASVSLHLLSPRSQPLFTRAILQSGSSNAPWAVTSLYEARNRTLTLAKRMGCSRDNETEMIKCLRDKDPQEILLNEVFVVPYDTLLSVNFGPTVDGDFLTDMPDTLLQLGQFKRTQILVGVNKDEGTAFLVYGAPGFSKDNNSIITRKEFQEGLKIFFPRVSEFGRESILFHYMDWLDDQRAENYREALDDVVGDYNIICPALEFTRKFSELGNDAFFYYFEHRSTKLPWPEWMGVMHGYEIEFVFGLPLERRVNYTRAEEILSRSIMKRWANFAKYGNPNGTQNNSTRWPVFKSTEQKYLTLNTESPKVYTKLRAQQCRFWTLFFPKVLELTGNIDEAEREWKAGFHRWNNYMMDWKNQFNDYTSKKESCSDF
SMILES,Selectivity AChE/BuChE [1],"IC50 [2, 15] [µM]","MIC ([3]; 24 h, read-out: MIC MRSA 24 h) [µM]","MIC ([3]; 48 h, read-out: MIC MRSA 48 h) [µM]","MIC [4, 16] [µM]","MIC [4, 17] [µM]","MIC [5, 18] [µM]","MIC [5, 19] [µM]",MIC KP 24 h [6] [µM],MIC KP 48 h [6] [µM],"MIC [7, 20] [µM]","MIC [7, 21] [µM]","IC50 [1, 22] [µM]","MIC [8, 23] [µM]","MIC [8, 24] [µM]","MIC [9, 25] [µM]","MIC [9, 26] [µM]","MIC [10, 27] [µM]","MIC [10, 28] [µM]",further results
"[H]/N=C(\N)NN=Cc1cccc(Cl)c1 [Compound 1c, (E)-2-(3-Chlorobenzylidene)hydrazine-1-carboximidamide]",1.06,41.5 ± 3.06,–,–,–,–,–,–,–,–,–,–,–,–,–,–,–,–,–,IC50 [1]: 43.9 ± 0.76 µM
"[H]/N=C(\N)NN=Cc1ccc(Cl)cc1O [Compound 1f, (E)-2-(4-Chloro-2-hydroxybenzylidene)hydrazine-1-carboximidamide]",1.40,30.6 ± 1.51,500,500,500,500,500,500,500,500,500,500,42.8 ± 1.33,500,500,500,500,125,125,–
"[H]/N=C(\N)NN=Cc1cc(Cl)ccc1O [Compound 1g, (E)-2-(5-Chloro-2-hydroxybenzylidene)hydrazine-1-carboximidamide]",0.83,45.2 ± 0.86,500,500,250,250,500,500,500,500,125,250,37.4 ± 0.73,500,500,500,500,62.5,62.5,–
"[H]/N=C(\N)NN=Cc1c(O)cccc1Cl [Compound 1h, (E)-2-(6-Chloro-2-hydroxybenzylidene)hydrazine-1-carboximidamide]",0.47,62.3 ± 1.08,> 500,> 500,250,500,500,500,>500,>500,> 500,> 500,29.5 ± 0.93,> 500,> 500,> 500,> 500,125,250,–
"[H]/N=C(\N)NN=Cc1ccco1 [Compound 3a, (E)-2-(Furan-2-ylmethylene)hydrazine-1-carboximidamide]",0.50,82.3 ± 3.02,–,–,–,–,–,–,–,–,–,–,41.1 ± 0.54,–,–,–,–,–,–,–
"N=C(N/N=C/c1ccc([N+](=O)[O-])o1)N/N=C/c1ccc([N+](=O)[O-])o1 [Compound 3c, (E)-2-[(5-Nitrofuran-2-yl)methylene]-N’-[(E)-(5-nitrofuran-2-yl)methylene]hydrazine-1-carboximidamide hydrochloride]",<0.08,–,–,–,–,–,–,–,–,–,–,–,–,–,–,–,–,–,–,IC50 [1]: 40 ± 2.56 µM; IC50 ([2]; IC50 BuChE): > 500 µM
"NC(=O)N/N=C/c1ccc([N+](=O)[O-])o1 [Compound 3d, (E)-2-[(5-Nitrofuran-2-yl)methylene]hydrazine-1-carboxamide]",<0.07,> 500,62.5,125,62.5,125,> 500,> 500,62.5,125,500,500,36.6 ± 0.69,> 500,> 500,125,250,31.2,62.5,–
"OC(Cn1cncn1)(Cn1cncn1)c1ccc(F)cc1F [FLU, fluconazole, reference compound]",–,–,–,–,–,–,–,–,–,–,–,–,–,–,–,–,–,–,–,"IC50 ([11]; ATCC750, 24 h, read-out: IC50 (50% growth inhibition) CT 24 h): 6.5 µM; IC50 ([11]; ATCC750, 48 h, read-out: IC50 (50% growth inhibition) CT 48 h): 6.5 µM; IC50 ([12]; ATCC9533, 72 h, read-out: IC50 (50% growth inhibition) TI 72 h): 52.2 µM; IC50 ([12]; ATCC9533, 120 h, read-out: IC50 (50% growth inhibition) TI 120 h): 52.2 µM; IC50 ([13]; ATCC22019, 24 h, read-out: IC50 (50% growth inhibition) CP 24 h): 3.3 µM; IC50 ([13]; ATCC22019, 48 h, read-out: IC50 (50% growth inhibition) CP 48 h): 3.3 µM; IC50 ([14]; ATCC24443, 24 h, read-out: IC50 (50% growth inhibition) CA 24 h): 6.5 µM; IC50 ([14]; ATCC24443, 48 h, read-out: IC50 (50% growth inhibition) CA 48 h): 6.5 µM; IC50 (Candida krusei ATCC 6258; ATCC6258, 24 h, read-out: IC50 (50% growth inhibition) CK 24 h): > 104 µM; IC50 (Candida krusei ATCC 6258; ATCC6258, 48 h, read-out: IC50 (50% growth inhibition) CK 48 h): > 104 µM"
"CCN1CCN(C(=O)N[C@@H](C(=O)N[C@@H]2C(=O)N3[C@@H]2SC(C)(C)[C@@H]3C(=O)O)c2ccccc2)C(=O)C1=O [PIP, piperacillin sodium salt, reference compound]",–,–,14.8,14.8,1.85,1.85,> 59.3,> 59.3,>59.31,>59.31,1.85,1.85,–,14.8,14.8,7.41,7.41,> 59.3,> 59.3,–
